Laboratory results from PubChem BioAssay (NCI).
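48-hour exposure; five concentrations; linearly interpolated endpoints. Here, GI50 denotes the concentration required for 50% inhibition of growth. Definition used: TGI = concentration required for complete inhibition of growth.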

How the values were obtained:
Test in all cases: inhibition of tumour cell growth, NCI panel, 48 h
[1] = test system: 786-0 renal
[2] = test system: PC-3 prostate
[3] = test system: TK-10 renal
[4] = test system: UACC-62 melanoma
[5] = test system: HOP-92 NSCLC
[6] = test system: SNB-75 CNS
[7] = test system: A549 NSCLC
[8] = test system: SF-268 CNS
[9] = test system: OVCAR-3 ovarian
[10] = test system: SF-539 CNS

Row | SMILES | GI50 [1] [µM] | TGI [1] [µM] | GI50 [2] [µM] | TGI [2] [µM] | GI50 [3] [µM] | TGI [3] [µM] | GI50 [4] [µM] | TGI [4] [µM] | GI50 [5] [µM] | TGI [5] [µM] | GI50 [6] [µM] | TGI [6] [µM] | GI50 [7] [µM] | TGI [7] [µM] | GI50 [8] [µM] | TGI [8] [µM] | GI50 [9] [µM] | TGI [9] [µM] | GI50 [10] [µM] | TGI [10] [µM]
1 | COc1ccc(-c2cc(-c3cc(Cl)ccc3Cl)nc3nc(=S)[nH]c(N)c23)cc1 | 20.1 | 37.4 | 24.8 | > 100 | 7.35 | 38.5 | 6.94 | > 100 | 11.8 | > 100 | 82.7 | > 100 | 15.2 | 41.8 | 57.7 | > 100 | 45.1 | > 100 | 27 | 82.9
2 | C=CCOc1c(Br)cc(Br)cc1Br | 34.1 | > 100 | 68 | > 100 | > 100 | > 100 | 4.8 | 91.7 | 35.6 | > 100 | 20.2 | > 100 | 45.8 | > 100 | 21.1 | > 100 | 3.12 | 17.2 | 20.9 | > 100
3 | CNC(=O)c1cc(Oc2ccc(NC(=O)Nc3ccc(Cl)c(OC(F)(F)F)c3)c(F)c2)ccn1 | 4.65 | > 33.2 | 1.48 | 19 | 2.44 | > 33.2 | 1.34 | 10 | 1.53 | 16.8 | 5.35 | 13.5 | 2.03 | > 33.2 | 2.44 | 14.2 | 1.78 | 11 | 3.38 | 8.13
4 | Cc1noc(C)c1-c1ccc2[nH]c(=O)n3c2c1OC[C@@H]3c1ccccn1 | 3.94 | > 100 | 2.88 | > 100 | 0.312 | > 100 | 0.302 | > 100 | 0.323 | > 100 | 0.0166 | 0.171 | 2.92 | > 100 | > 100 | > 100 | 3.84 | > 100 | 2.05 | > 100
5 | C[C@H]1CCC/C=C/[C@@H]2C[C@H](N)C[C@H]2[C@H](O)/C=C/C(=O)O1 | > 100 | > 100 | > 100 | > 100 | > 100 | > 100 | > 100 | > 100 | > 100 | > 100 | 39.9 | > 100 | > 100 | > 100 | > 100 | > 100 | > 100 | > 100 | > 100 | > 100
6 | COc1ccc(NC2=C(Br)C(=O)C(C)=C(C)C2=O)cc1 | 15.7 | 29.9 | 2.78 | 9.05 | 25.2 | 40.9 | 7.74 | 20.7 | 1.55 | 3.08 | 11 | 23.5 | 18.7 | 45.7 | 11.9 | 28.2 | 1.72 | 3.13 | 13.5 | 26.7
